Results as given in patent US20220267260A1, “COMPOUNDS CONTAINING A SULFONIC GROUP AS KAT INHIBITORS” (Epizyme, Inc., priority 2016, published 2022).

How the values were obtained:
[1] = molecular target: T1, KAT5 (Homo sapiens, UniProt Q92993); test: KAT5 enzyme inhibition assay (SAMDI mass spectrometry); type: biochemical; settings: His-TEV-FL KAT5-Flag enzyme construct
T1 construct: His-TEV tag (N, cleaved yes); made in house

[2] = molecular target: T2, KAT6A (Homo sapiens, UniProt Q92794); test: KAT6A enzyme inhibition assay (SAMDI mass spectrometry); type: biochemical; settings: His-TEV-KAT6A 501-784 enzyme construct
T2 construct: His-TEV tag (N, cleaved yes); made in house
T2 sequence (Q92794 with tags, fused parts or gaps): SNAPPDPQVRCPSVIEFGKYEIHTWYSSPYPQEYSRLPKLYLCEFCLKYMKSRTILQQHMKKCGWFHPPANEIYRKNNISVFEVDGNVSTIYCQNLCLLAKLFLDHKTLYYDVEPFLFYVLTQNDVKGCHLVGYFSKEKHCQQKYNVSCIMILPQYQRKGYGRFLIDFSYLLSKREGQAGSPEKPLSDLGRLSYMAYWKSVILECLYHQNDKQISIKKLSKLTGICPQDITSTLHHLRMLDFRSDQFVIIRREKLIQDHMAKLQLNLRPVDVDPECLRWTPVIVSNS

T1 sequence (Q92993 with tags, fused parts or gaps): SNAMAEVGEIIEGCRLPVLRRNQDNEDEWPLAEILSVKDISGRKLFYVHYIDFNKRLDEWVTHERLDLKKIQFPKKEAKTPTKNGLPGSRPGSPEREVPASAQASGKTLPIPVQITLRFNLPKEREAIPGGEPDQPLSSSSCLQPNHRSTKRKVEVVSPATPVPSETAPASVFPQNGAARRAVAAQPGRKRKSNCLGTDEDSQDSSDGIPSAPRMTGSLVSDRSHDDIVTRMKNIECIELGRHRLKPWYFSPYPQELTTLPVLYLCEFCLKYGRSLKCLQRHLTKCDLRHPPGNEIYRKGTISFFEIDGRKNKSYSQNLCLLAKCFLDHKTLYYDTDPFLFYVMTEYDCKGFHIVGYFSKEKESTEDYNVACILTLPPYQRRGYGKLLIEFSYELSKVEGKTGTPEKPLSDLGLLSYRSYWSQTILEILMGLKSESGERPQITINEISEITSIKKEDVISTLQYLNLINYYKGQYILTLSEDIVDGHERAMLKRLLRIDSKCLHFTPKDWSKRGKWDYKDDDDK

SMILES	IC50 [1] [µM]	IC50 [2] [µM]
O=C(NNS(=O)(=O)CC1CCCN(C(=O)C2CCC2)C1)c1cc(-c2cccc(F)c2)cc(Cl)c1F (stereo not drawn) [Compound I-417]	≤ 10	≤ 10
O=C(NCCO)c1cc(Cl)c(F)c(C(=O)NNS(=O)(=O)C2CCCCC2)c1 [Compound I-470]	50 to 100	> 100
CCNC(=O)c1cc(Cl)c(F)c(C(=O)NNS(=O)(=O)C2CCCCC2)c1 [Compound I-472]	> 100	> 100
Cc1cc(-c2ccccc2)cc(C(=O)NNS(=O)(=O)C(C)C2CCNCC2)c1F (stereo not drawn) [Compound I-382]	50 to 100	50 to 100
Cc1cc(-c2ccccc2)cc(C(=O)NNS(=O)(=O)CC2CCCN(C)C2)c1F (stereo not drawn) [Compound I-337]	10 to 50	10 to 50
O=C(NNS(=O)(=O)c1ccccc1)c1cc(-c2ccccc2)cc2[nH]ccc12 [Compound I-16]	> 100	50 to 100
O=C(NNS(=O)(=O)c1cc(-c2ccccc2)cc(Cl)c1F)c1ccccc1 [Compound I-523]	10 to 50	10 to 50
CN1CCN(Cc2cc(Cl)c(F)c(C(=O)NNS(=O)(=O)C3CCOCC3)c2)CC1 [Compound I-442]	> 100	> 100
O=C(NNS(=O)(=O)c1ccc(Cl)cc1)c1ccccc1F [Compound I-143]	> 100	10 to 50
Cn1cnc(-c2ccc(F)c(C(=O)NNS(=O)(=O)c3ccccc3)c2F)c1 [Compound I-259]	10 to 50	≤ 10
Cc1cccc(-c2cc(Cl)c(F)c(C(=O)NNS(=O)(=O)CC3CCCN(C(=O)OC(C)(C)C)C3)c2)c1 (stereo not drawn) [Compound I-513]	≤ 10	> 100
Cc1cc(-c2ccccc2)cc(C(=O)NNS(=O)(=O)CC2CCCNC2)c1F (stereo not drawn) [Compound I-351]	10 to 50	> 100
Cc1cc(-c2cccc(F)c2)cc(C(=O)NNS(=O)(=O)CC2CCCN(C(=O)C(C)(C)C)C2)c1F (stereo not drawn) [Compound I-294]	≤ 10	≤ 10
Cc1cc(-c2cccc(F)c2F)cc(C(=O)NNS(=O)(=O)c2ccccc2)c1F [Compound I-362]	≤ 10	≤ 10
COc1ccc(Cn2cnc(-c3ccc(F)c(C(=O)NNS(=O)(=O)c4ccccc4)c3F)c2)cc1 [Compound I-222]	50 to 100	≤ 10
O=C(NNS(=O)(=O)c1ccccc1)c1n[nH]c2ccccc12 [Compound I-196]	> 100	50 to 100
O=C(NNS(=O)(=O)C1CCCCC1)c1cc(-c2ccccc2)ccc1F [Compound I-360]	10 to 50	10 to 50
Cc1cc(-c2ccccc2)cc(C(=O)NNS(=O)(=O)C2CN(C(=O)c3ccccc3)C2)c1F [Compound I-34]	10 to 50	10 to 50
CC(C)(C)OC(=O)N1CCCC(CS(=O)(=O)NNC(=O)c2cc(-c3ccccc3)cc(Cl)c2F)C1 (stereo not drawn) [Compound I-401]	≤ 10	≤ 10
COCC(=O)N1CCC(CS(=O)(=O)NNC(=O)c2cc(-c3ccccc3)cc(C)c2F)C1 (stereo not drawn) [Compound I-356]	≤ 10	≤ 10
Cc1cc(-c2ccccc2)cc(C(=O)NNS(=O)(=O)C2CCN(C(=O)OC(C)(C)C)CC2)c1F [Compound I-88]	≤ 10	≤ 10
COc1cc(Cl)c(F)c(C(=O)NNS(=O)(=O)CC2CCCCC2)c1 [Compound I-394]	≤ 10	10 to 50

SMILES	IC50 [1] [µM]	IC50 [2] [µM]
Cc1nc(-c2ccccc2)cc(C(=O)NNS(=O)(=O)C2CCCCC2)c1F [Compound I-288]	10 to 50	10 to 50
Cn1cnc2c(C(=O)NNS(=O)(=O)C3CCCCC3)c(F)c(-c3ccccc3)cc21 [Compound I-468]	> 100	> 100
Cc1cc(C)c(F)c(C(=O)NNS(=O)(=O)C2CCCCC2)c1 [Compound I-347]	10 to 50	> 100
Nc1ccc(-c2cc(Cl)c(F)c(C(=O)NNS(=O)(=O)C3CCOCC3)c2)cc1 [Compound I-455]	10 to 50	> 100
Cc1nc(-c2cccc(F)c2)cc(C(=O)NNS(=O)(=O)CC2CCCN(C(=O)C3CCC3)C2)c1F (stereo not drawn) [Compound I-291]	≤ 10	≤ 10
Cc1cc(-c2ccccc2)cc(C(=O)NNS(=O)(=O)CC2CN(C(=O)OC(C)(C)C)C2)c1F [Compound I-207]	≤ 10	≤ 10
Cc1cc(-c2cccc(C(=O)O)c2)cc(C(=O)NNS(=O)(=O)C2CCCCC2)c1F [Compound I-444]	≤ 10	≤ 10
Cc1cc(-c2ccccc2)cc(C(=O)NNS(=O)(=O)Cc2ccccc2F)c1F [Compound I-82]	≤ 10	≤ 10
Cc1cc(-c2ccccc2)cc(C(=O)NNS(=O)(=O)C2CCCCC2)c1F [Compound I-18]	≤ 10	≤ 10
CN(C)C(=O)c1cc(Cl)c(F)c(C(=O)NNS(=O)(=O)C2CCOCC2)c1 [Compound I-434]	> 100	> 100
Cc1c(-c2ccccc2)ccc(F)c1C(=O)NNC(=O)c1ccccc1 [Compound I-171]	> 100	> 100
Cc1nn(CC(=O)NC2CCC2)c(C(=O)NNS(=O)(=O)C2CCCCC2)c1F [Compound I-501]	> 100	> 100
O=C(NS(=O)(=O)Nc1ccccc1)c1c(F)ccc(-c2ccccc2)c1F [Compound I-212]	> 100	50 to 100
Cc1cc(-c2ccccc2)cc(C(=O)NNS(=O)(=O)CC2CCOCC2)c1F [Compound I-267]	≤ 10	≤ 10
CCC(=O)N1CCC(S(=O)(=O)NNC(=O)c2cc(-c3ccccc3)cc(C)c2F)CC1 [Compound I-107]	10 to 50	10 to 50
Cc1cc(-c2ccccc2)cc(C(=O)N2CC(S(=O)(=O)c3ccccc3)C2)c1F [Compound I-199]	> 100	> 100
CC(=O)N1CCC(S(=O)(=O)NNC(=O)c2cc(Cl)cc(Cl)c2F)CC1 [Compound I-435]	> 100	> 100
Cc1cc(-c2ccccc2)cc(C(=O)NNS(=O)(=O)C2CN(CCc3ccccc3)C2)c1F [Compound I-62]	> 100	10 to 50
O=C(NNS(=O)(=O)c1ccccc1)c1cccc(-c2ccccc2)c1F [Compound I-234]	> 100	≤ 10
Cc1cc(-c2cccc(F)c2)cc(C(=O)NNS(=O)(=O)CC2CCCN(C(=O)C(C)C)C2)c1F (stereo not drawn) [Compound I-292]	≤ 10	≤ 10
COc1ccccc1C(=O)NNS(=O)(=O)c1ccccc1 [Compound I-145]	> 100	> 100
COCc1cc(Cl)c(F)c(C(=O)NNS(=O)(=O)CC2CCCCC2)c1 [Compound I-437]	≤ 10	≤ 10

SMILES	IC50 [1] [µM]	IC50 [2] [µM]
Cc1cc(-c2ccccc2)cc(C(=O)NNS(=O)(=O)C2CN(Cc3ccccc3Cl)C2)c1F [Compound I-37]	10 to 50	10 to 50
CCNC(=O)N1CCC(CS(=O)(=O)NNC(=O)c2cc(-c3cccc(C)c3)cc(Cl)c2F)C1 (stereo not drawn) [Compound I-518]	> 100	> 100
O=C(NNS(=O)(=O)c1cccc(Cl)c1)c1c(F)ccc(-c2cnc[nH]2)c1F [Compound I-499]	> 100	> 100
Cn1ccc2c(C(=O)NNS(=O)(=O)c3ccccc3)cc(-c3ccccc3)cc21 [Compound I-17]	50 to 100	> 100
Cc1cc(-c2cccc(Cl)c2)cc(C(=O)NNS(=O)(=O)C2CCCCC2)c1F [Compound I-358]	≤ 10	10 to 50
O=C(NNS(=O)(=O)c1ccccc1)c1cc(-c2ccccc2)cc(F)c1F [Compound I-250]	≤ 10	≤ 10
Cc1cc(F)cc(-c2cc(Cl)c(F)c(C(=O)NNS(=O)(=O)C3CCCCC3)c2)c1 [Compound I-484]	10 to 50	10 to 50
Cc1cc(-c2ccccc2)cc(C(=O)Nc2cn[nH]c2)c1F [Compound I-213]	> 100	> 100
CNC(=O)Cn1nc(C(=O)NNS(=O)(=O)C2CCCCC2)cc1C [Compound I-481]	> 100	> 100
O=C(NS(=O)(=O)c1ccccc1)c1c[nH]c2ccccc12 [Compound I-185]	> 100	> 100
Cc1cc(-c2ccccc2)cc(C(=O)NNS(=O)(=O)c2cccc(C(N)=O)c2)c1F [Compound I-383]	≤ 10	≤ 10
Cc1cccc(-c2cc(Cl)c(F)c(C(=O)NNS(=O)(=O)CC3CCCNC3)c2)c1 (stereo not drawn) [Compound I-514]	> 100	> 100
COCCN1CCCC(C(C)S(=O)(=O)NNC(=O)c2cc(-c3ccccc3)cc(C)c2F)C1 (stereo not drawn) [Compound I-334]	10 to 50	10 to 50
COCc1cc(Cl)c(F)c(C(=O)NNS(=O)(=O)CC2CCOCC2)c1 [Compound I-452]	≤ 10	≤ 10
O=C(NNS(=O)(=O)c1ccccc1)c1cnn(-c2ccccc2)c1 [Compound I-197]	> 100	> 100
Cn1cnc2cc(-c3ccccc3)c(F)c(C(=O)NNS(=O)(=O)C3CCCCC3)c21 [Compound I-402]	> 100	> 100
Cc1cc(-c2ccccc2)cc(C(=O)NNS(=O)(=O)C2CCN(Cc3ccccc3)C2)c1F (stereo not drawn) [Compound I-33]	10 to 50	10 to 50
Cc1cc(-c2ccc(C(C)C)cc2)cc(C(=O)NNS(=O)(=O)c2ccccc2)c1F [Compound I-384]	> 100	≤ 10
COc1ccc(Cn2ncc3c(C(=O)NNS(=O)(=O)c4ccccc4)cc(-c4ccccc4)cc32)cc1 [Compound I-247]	50 to 100	10 to 50
O=C(NNS(=O)(=O)C1CCOCC1)c1cc(CN2CCCCC2)cc(Cl)c1F [Compound I-454]	50 to 100	10 to 50
CNC(=O)Cn1cc(F)c(C(=O)NNS(=O)(=O)C2CCCCC2)n1 [Compound I-496]	> 100	> 100
O=C(NNS(=O)(=O)CC1CCCCC1)c1cc(Cl)cc(Cl)c1F [Compound I-411]	≤ 10	10 to 50
